In publication PMC11864979, “First-in-class ultralong-target-residence-time p38α inhibitors as a mitosis-targeted therapy for colorectal cancer” (Nature Cancer, 2025):
Like-named read-outs stand apart in the source and are kept apart here.

Legend:
Assay in all cases: selectivity profiling in a panel of 340 wild-type kinases (Reaction Biology Europe)
Format in all cases: binding
[1] = target: T1, 340 wild-type kinases (Homo sapiens, UniProt Q13233)
T1 construct: purchased Reaction Biology Europe

[2] = target: T2, 340 wild-type kinases (Homo sapiens, UniProt O15111)
T2 construct: purchased Reaction Biology Europe
T2 sequence (O15111 1-745): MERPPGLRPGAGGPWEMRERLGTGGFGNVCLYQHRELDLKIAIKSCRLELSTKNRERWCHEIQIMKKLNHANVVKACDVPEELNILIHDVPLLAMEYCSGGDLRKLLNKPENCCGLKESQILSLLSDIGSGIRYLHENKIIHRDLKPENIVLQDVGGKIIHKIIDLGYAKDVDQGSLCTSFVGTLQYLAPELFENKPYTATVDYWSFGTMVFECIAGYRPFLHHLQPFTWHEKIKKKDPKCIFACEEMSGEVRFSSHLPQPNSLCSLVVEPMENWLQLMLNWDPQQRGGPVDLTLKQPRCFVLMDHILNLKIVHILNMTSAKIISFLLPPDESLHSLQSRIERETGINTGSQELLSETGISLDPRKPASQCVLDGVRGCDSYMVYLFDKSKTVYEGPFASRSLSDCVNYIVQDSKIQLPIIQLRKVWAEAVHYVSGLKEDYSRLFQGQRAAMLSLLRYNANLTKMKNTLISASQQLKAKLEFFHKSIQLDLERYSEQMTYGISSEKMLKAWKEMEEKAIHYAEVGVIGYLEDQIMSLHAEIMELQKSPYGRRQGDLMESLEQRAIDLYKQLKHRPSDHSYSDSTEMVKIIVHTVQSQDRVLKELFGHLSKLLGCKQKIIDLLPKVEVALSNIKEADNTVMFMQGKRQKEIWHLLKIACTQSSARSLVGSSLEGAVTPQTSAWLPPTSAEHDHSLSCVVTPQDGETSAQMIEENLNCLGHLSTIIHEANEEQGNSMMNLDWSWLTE

[3] = target: T3, 340 wild-type kinases (Homo sapiens, UniProt Q99683)
T3 construct: purchased Reaction Biology Europe
T3 sequence (Q99683 1-1374): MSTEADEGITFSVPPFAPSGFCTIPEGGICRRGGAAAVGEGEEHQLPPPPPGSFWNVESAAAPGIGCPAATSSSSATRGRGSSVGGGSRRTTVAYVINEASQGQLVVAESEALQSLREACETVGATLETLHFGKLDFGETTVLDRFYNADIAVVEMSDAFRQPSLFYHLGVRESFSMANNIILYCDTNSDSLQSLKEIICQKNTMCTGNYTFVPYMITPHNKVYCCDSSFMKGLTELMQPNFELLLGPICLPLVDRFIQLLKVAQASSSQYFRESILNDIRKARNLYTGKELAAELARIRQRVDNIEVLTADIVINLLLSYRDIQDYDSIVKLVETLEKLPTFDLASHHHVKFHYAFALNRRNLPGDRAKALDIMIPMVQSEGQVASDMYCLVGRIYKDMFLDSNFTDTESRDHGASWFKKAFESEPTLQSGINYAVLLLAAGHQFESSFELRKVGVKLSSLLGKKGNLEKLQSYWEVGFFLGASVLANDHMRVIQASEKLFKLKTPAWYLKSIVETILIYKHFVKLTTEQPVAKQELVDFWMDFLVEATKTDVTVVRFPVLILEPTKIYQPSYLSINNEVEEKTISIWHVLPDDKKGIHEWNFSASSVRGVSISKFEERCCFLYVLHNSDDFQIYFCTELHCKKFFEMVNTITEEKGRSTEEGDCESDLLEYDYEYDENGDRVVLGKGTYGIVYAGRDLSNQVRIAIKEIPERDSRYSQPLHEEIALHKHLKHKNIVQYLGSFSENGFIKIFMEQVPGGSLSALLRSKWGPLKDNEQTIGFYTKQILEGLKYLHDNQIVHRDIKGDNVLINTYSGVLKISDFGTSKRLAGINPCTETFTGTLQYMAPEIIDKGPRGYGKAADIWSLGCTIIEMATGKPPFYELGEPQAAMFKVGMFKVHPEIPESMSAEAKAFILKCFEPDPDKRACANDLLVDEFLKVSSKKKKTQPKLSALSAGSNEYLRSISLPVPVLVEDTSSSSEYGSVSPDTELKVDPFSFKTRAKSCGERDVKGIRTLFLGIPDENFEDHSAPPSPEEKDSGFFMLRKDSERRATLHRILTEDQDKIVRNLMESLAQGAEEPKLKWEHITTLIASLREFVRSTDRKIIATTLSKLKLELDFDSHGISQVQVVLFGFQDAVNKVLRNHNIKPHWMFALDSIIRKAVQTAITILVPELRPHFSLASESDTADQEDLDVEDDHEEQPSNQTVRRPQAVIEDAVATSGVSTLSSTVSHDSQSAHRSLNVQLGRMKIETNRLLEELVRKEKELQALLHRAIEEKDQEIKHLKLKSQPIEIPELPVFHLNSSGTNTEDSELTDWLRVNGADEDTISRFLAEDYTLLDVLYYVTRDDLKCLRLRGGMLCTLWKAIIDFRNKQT

[4] = target: T4, 340 wild-type kinases (Homo sapiens, UniProt O00238)
T4 construct: purchased Reaction Biology Europe

[5] = target: T5, 340 wild-type kinases (Homo sapiens, UniProt O95819)
T5 construct: purchased Reaction Biology Europe

[6] = target: T6, 340 wild-type kinases (Homo sapiens, UniProt P42345)
T6 construct: purchased Reaction Biology Europe

[7] = target: T7, 340 wild-type kinases (Homo sapiens, UniProt Q15208)
T7 construct: purchased Reaction Biology Europe
T7 sequence (Q15208 whole entry): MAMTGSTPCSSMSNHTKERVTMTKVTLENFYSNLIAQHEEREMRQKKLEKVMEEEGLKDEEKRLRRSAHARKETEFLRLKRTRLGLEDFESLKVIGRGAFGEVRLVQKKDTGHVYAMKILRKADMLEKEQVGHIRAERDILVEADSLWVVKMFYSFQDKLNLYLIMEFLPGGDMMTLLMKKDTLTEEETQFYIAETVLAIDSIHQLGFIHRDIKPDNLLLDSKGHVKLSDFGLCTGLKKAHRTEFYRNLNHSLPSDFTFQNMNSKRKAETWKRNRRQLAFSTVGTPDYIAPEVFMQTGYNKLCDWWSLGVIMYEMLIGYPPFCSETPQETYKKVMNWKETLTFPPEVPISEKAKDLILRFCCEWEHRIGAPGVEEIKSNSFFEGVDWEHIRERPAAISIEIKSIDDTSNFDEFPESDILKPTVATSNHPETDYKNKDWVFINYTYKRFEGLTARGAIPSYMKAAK

T5 sequence (O95819 whole entry): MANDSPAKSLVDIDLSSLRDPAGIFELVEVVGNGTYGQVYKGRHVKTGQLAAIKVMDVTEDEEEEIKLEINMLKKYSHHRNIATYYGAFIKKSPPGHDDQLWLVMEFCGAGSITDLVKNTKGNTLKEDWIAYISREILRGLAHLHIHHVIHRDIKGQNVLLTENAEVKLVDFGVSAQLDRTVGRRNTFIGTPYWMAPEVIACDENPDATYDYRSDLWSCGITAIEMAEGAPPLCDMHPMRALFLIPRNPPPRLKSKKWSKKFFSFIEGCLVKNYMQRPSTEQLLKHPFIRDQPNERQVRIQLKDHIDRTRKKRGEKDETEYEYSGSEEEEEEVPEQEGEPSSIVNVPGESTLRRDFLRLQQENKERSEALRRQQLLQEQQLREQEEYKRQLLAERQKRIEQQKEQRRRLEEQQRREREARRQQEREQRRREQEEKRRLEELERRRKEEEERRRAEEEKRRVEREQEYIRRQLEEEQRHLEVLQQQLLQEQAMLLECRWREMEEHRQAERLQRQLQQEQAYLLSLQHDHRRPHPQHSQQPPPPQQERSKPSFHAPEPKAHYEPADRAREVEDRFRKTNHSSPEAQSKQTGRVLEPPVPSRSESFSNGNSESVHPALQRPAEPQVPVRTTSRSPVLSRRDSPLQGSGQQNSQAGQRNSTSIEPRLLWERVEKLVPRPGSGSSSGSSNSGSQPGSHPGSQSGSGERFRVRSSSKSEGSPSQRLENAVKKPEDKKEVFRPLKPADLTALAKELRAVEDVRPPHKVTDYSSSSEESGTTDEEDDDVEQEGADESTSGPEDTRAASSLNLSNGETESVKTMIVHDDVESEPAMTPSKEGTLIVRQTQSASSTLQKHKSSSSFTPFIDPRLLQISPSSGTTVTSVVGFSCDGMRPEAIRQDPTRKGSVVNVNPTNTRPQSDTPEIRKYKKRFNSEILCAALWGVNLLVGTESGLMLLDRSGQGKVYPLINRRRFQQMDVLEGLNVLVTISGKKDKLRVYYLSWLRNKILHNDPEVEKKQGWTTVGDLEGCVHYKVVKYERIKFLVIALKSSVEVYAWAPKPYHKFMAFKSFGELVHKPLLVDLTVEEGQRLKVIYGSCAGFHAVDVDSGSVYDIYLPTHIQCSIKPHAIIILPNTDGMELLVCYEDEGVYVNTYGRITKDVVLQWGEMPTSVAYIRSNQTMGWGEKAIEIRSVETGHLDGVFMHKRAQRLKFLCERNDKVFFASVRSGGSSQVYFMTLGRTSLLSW
T4 sequence (O00238 14-502): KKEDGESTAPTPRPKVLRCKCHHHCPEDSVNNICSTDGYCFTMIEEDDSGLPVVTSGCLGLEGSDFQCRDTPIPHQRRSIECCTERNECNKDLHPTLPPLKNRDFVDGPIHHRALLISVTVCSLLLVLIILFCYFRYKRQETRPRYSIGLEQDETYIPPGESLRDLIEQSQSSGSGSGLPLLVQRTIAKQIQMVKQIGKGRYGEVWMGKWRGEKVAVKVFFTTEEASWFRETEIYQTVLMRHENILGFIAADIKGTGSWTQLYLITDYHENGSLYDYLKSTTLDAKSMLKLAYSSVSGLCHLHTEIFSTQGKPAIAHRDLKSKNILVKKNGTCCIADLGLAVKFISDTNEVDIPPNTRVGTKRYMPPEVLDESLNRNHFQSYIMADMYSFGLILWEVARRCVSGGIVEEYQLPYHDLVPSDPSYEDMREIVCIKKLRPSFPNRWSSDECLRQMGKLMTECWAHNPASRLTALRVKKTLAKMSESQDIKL
T1 sequence (Q13233 whole entry): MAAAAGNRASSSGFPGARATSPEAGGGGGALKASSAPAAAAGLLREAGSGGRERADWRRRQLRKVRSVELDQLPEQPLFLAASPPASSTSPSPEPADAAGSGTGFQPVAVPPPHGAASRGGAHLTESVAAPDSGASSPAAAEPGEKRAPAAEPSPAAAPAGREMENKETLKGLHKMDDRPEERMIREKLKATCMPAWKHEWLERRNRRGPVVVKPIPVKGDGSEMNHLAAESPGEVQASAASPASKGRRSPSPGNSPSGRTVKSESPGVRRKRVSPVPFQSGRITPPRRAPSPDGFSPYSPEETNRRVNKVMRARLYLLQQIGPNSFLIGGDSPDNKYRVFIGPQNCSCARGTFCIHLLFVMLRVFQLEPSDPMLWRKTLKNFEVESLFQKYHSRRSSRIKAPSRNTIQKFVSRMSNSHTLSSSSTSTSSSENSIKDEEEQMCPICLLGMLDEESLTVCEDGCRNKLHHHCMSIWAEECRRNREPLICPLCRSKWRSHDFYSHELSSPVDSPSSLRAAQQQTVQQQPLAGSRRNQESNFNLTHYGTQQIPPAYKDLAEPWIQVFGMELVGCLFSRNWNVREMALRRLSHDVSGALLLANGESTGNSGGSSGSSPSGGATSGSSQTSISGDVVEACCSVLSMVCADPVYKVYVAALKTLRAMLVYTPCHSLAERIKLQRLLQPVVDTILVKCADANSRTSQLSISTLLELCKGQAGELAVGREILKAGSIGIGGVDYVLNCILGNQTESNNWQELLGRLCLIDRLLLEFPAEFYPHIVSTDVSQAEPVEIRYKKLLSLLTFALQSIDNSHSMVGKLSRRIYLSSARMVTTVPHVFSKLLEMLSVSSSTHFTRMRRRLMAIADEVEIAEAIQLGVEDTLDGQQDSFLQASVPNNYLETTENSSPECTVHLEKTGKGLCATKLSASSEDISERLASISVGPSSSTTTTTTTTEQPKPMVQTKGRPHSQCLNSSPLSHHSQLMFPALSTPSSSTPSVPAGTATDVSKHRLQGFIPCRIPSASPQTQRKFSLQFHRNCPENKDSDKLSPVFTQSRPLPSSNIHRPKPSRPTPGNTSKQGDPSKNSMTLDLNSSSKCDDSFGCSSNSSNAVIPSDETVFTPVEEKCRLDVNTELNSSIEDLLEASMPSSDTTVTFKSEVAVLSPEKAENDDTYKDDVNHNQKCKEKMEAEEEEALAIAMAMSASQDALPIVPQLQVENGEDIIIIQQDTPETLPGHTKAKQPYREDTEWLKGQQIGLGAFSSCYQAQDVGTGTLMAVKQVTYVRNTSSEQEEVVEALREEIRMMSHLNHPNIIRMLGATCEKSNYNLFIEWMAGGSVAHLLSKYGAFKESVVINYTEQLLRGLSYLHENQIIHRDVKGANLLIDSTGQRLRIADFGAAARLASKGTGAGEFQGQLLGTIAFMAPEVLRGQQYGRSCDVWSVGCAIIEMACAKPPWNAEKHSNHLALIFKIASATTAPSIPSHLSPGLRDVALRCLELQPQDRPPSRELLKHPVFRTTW

## CNC(=O)c1ccc2c(c1)C(=O)c1ccc(Nc3ccc(F)c(NC(=O)C4CC4)c3)cc1CC2 [Compound 2015]
[1]; 0.2 µM 2015, read-out: MAP3K1 residual activity
  remaining activity at 0.2 µM: 104%
[1]; 1 µM 2015, read-out: MAP3K1 residual activity
  remaining activity at 1 µM: 102%
[1]; MAP3K1, 0.2 µM, read-out: residual activity
  remaining activity at 0.2 µM: 104%
[1]; MAP3K1, 1 µM, read-out: residual activity
  remaining activity at 1 µM: 102%
[2]; 0.2 µM 2015, read-out: IKKalpha residual activity
  remaining activity at 0.2 µM: 97.6%
[2]; 1 µM 2015, read-out: IKKalpha residual activity
  remaining activity at 1 µM: 92%
[2]; IKKalpha, 0.2 µM, read-out: residual activity
  remaining activity at 0.2 µM: 97.6%
[2]; IKKalpha, 1 µM, read-out: residual activity
  remaining activity at 1 µM: 92%
[3]; 0.2 µM 2015, read-out: ASK1 residual activity
  remaining activity at 0.2 µM: 95.5%
[3]; 1 µM 2015, read-out: ASK1 residual activity
  remaining activity at 1 µM: 95%
[3]; ASK1, 0.2 µM, read-out: residual activity
  remaining activity at 0.2 µM: 95.5%
[3]; ASK1, 1 µM, read-out: residual activity
  remaining activity at 1 µM: 95%
[4]; 0.2 µM 2015, read-out: BMPR1B residual activity
  remaining activity at 0.2 µM: 105%
[4]; 1 µM 2015, read-out: BMPR1B residual activity
  remaining activity at 1 µM: 103%
[4]; BMPR1B, 0.2 µM, read-out: residual activity
  remaining activity at 0.2 µM: 105%
[4]; BMPR1B, 1 µM, read-out: residual activity
  remaining activity at 1 µM: 103%
[5]; 0.2 µM 2015, read-out: MAP4K4 residual activity
  remaining activity at 0.2 µM: 90.2%
[5]; 1 µM 2015, read-out: MAP4K4 residual activity
  remaining activity at 1 µM: 81.8%
[5]; MAP4K4, 0.2 µM, read-out: residual activity
  remaining activity at 0.2 µM: 90.2%
[5]; MAP4K4, 1 µM, read-out: residual activity
  remaining activity at 1 µM: 81.8%
[6]; 0.2 µM 2015, read-out: MTOR residual activity
  remaining activity at 0.2 µM: 97.9%
[6]; 1 µM 2015, read-out: MTOR residual activity
  remaining activity at 1 µM: 101%
[6]; MTOR, 0.2 µM, read-out: residual activity
  remaining activity at 0.2 µM: 97.9%
[6]; MTOR, 1 µM, read-out: residual activity
  remaining activity at 1 µM: 101%
[7]; 0.2 µM 2015, read-out: NDR1 residual activity
  remaining activity at 0.2 µM: 91.9%
[7]; 1 µM 2015, read-out: NDR1 residual activity
  remaining activity at 1 µM: 94%
[7]; NDR1, 0.2 µM, read-out: residual activity
  remaining activity at 0.2 µM: 91.9%
[7]; NDR1, 1 µM, read-out: residual activity
  remaining activity at 1 µM: 94%
